Here are results for 7 compounds from patent publication EP1267867B1, “USE OF PROSTANOID EP4 RECEPTOR ANTAGONISTS FOR THE TREATMENT OF HEADACHE AND ASSAYS FOR SUCH ANTAGONISTS” (ASTERAND UK LIMITED, priority 2000, dated 2001).

The term pA2 denotes a measure of antagonist potency on a negative log scale.

Experiment [1] addresses T1, EP1 (Homo sapiens, UniProt P34995).
T1 sequence (P34995 1-402): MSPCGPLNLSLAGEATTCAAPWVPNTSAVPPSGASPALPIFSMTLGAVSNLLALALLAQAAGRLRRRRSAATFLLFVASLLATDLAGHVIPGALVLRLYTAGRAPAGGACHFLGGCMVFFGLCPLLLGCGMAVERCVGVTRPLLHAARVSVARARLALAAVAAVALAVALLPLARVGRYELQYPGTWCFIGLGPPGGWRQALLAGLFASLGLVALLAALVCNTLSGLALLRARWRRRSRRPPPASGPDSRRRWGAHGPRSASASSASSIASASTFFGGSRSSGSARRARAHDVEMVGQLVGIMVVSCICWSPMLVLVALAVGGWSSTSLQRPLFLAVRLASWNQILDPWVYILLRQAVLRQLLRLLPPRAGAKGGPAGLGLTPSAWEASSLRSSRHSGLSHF
Particulars: cited from earlier work.

Experiment [2] addresses T2, EP3 (Homo sapiens, UniProt P43115).
T2 sequence (P43115 1-390): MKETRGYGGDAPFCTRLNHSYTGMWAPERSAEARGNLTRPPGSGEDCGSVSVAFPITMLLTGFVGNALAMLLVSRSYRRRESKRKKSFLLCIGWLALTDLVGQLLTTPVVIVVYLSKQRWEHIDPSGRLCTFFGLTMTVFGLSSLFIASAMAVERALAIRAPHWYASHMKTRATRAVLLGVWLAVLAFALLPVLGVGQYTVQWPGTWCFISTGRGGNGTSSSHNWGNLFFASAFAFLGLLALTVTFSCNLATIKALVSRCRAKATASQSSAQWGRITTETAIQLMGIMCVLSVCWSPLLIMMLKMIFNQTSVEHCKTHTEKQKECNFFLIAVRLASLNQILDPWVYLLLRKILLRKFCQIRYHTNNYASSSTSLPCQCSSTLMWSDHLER
Particulars: cited from earlier work.

The target of experiment [3] is EP2 (Homo sapiens, UniProt P43116). Particulars: cited from earlier work.
The target of experiment [4] is T3, EP4 receptors (Sus scrofa, UniProt I3LLK4).
T3 construct: providing a natural source of the receptors, such as piglet saphenous vein; host or cells: piglet saphenous vein rings (tissue, endogenous receptor)
Particulars: antagonism of PGE2-induced relaxation of piglet saphenous vein through blockade of EP4 receptors; cited from earlier work.

For experiment [5], the target named is T4, EP4 receptor (Homo sapiens, UniProt P35408).
T4 construct: Intact rings of this cerebral artery, 2-3mm in length, were set up under isometric conditions; from tissue; host or cells: human middle cerebral artery rings (one donor)
Kind of experiment: Antagonism of PGE2-mediated relaxation of phenylephrine pre-contracted middle cerebral artery rings. It counts as cell-based. Particulars: 10 mM AH23848, 45 mins preincubation, P=0.004, 2 tailed T-Test. As to the method: (§1) Sections of cerebral artery were removed from different regions of preparations of human cerebral vasculature containing an intact circle of Willis. Intact rings of this cerebral artery, 2-3mm in length, were set up under isometric conditions in 10 ml organ baths under an initial tension of 1g. All tissues were maintained at 37°C and gassed constantly with 95% O2 / 5% CO2. Following a 90 min equilibration period all tissues were challenged with phenylephrine (1 µM), to determine tissue viability. Once a stable contraction had been obtained, tissues were exposed to a range of prostanoid receptor agonists, in the absence or presence of receptor antagonists, to determine the functional role of prostanoid receptors in maintaining arterial tone.
To test the effect of the EP4 receptor antagonist AH23848, cerebral rings were preincubated for 45 mins with 10 mM AH23848.

The subject of experiment [6] is human cerebral artery rings. Kind of experiment: Prostanoid agonist effects on isolated human cerebral artery rings (organ bath, isometric tension). It is filed as cell-based. Particulars: for effect on human cerebral artery rings contracted with phenylephrine: smaller diameter vessels, phenylephrine (1 µM), GR32191 (1 µM) present to block TP-receptors, Figures 3-5. As for the experimental part: as §1

Experiment [7] relates to pulmonary artery. As to the kind of experiment: Effect of PGE2 on pre-contracted pulmonary artery rings. It is filed as cell-based, human. Particulars: tone induced with U-46619 (10-100nM), n=3 donors; cicaprost 0.1-1µM. As to the method: (§2) Rings (2-4mm internal diameter) were prepared from sections of pulmonary or coronary artery (n=3 each). They were mounted in organ baths under isometric conditions, in gassed Krebs solution (containing indomethacin) at 37°C, and 1-1.5g initial tone.
(§3) After at least 60min equilibration, tone was induced with U-46619 (10-100nM) in pulmonary artery or either phenylephrine (1-10µM) or endothelin-1 (-7M) in coronary artery.

Experiment [8] relates to coronary artery. As to the kind of experiment: Effect of PGE2 on pre-contracted coronary artery rings. It counts as cell-based, human. As to conditions: for relaxation of coronary artery: tone induced with phenylephrine (1-10µM) or endothelin-1, n=3 donors, cicaprost 0.1-1µM. As for the experimental part: as §2, §3

T3 sequence (I3LLK4 1-489): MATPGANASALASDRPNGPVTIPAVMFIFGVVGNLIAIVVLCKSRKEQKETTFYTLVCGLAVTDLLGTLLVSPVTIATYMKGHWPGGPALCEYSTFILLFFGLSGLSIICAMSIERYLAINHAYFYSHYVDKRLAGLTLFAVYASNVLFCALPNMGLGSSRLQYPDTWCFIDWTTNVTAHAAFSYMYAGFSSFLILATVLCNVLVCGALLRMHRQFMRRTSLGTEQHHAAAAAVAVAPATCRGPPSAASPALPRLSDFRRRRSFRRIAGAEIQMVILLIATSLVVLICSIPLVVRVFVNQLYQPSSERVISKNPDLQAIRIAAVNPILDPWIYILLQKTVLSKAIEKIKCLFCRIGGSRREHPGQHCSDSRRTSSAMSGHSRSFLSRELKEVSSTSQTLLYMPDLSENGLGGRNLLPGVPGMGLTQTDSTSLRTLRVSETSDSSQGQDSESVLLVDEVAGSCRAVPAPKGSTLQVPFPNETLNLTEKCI
EP2, sequence (P43116 whole entry): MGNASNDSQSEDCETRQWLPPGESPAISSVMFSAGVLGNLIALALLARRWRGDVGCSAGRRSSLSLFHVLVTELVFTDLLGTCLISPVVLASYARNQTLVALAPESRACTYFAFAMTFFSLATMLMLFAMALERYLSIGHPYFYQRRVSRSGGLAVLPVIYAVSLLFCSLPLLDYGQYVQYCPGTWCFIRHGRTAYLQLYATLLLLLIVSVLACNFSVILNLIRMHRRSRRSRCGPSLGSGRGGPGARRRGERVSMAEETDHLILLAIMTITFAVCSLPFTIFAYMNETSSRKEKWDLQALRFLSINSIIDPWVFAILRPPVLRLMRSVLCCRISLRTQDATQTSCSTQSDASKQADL
T4 sequence (P35408 whole entry): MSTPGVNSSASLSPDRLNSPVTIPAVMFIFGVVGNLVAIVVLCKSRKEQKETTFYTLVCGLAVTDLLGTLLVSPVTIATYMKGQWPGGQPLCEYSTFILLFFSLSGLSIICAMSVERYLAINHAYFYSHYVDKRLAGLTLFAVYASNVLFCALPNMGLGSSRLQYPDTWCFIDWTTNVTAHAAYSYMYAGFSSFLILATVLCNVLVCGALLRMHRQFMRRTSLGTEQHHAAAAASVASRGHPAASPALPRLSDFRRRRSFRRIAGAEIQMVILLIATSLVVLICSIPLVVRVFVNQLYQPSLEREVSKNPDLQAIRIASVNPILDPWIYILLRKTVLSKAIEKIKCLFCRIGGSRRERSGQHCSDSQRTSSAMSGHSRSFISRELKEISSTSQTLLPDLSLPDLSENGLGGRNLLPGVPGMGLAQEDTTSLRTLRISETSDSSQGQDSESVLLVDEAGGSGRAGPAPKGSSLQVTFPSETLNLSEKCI

With `O=C(O)CCC/C=C\C[C@H]1[C@@H](OCc2ccc(-c3ccccc3)cc2)CC(=O)[C@@H]1N1CCOCC1` [AH22921], the “effect on EP receptor subtype EP1” value in experiment [1] was “no effect”. In addition, the “effect on EP receptor subtype EP3” value in experiment [2] is given as “no effect”. Moreover, the “effect on EP receptor subtype EP2” value in experiment [3] is given as “no effect”. Moreover, the pA2 in experiment [4] is 5.3.

Consider `O=C(O)CCC=CCCC1C(OCc2ccc(-c3ccccc3)cc2)CC(=O)C1N1CCOCC1` (centres unmarked) [AH23848], for which the “effect on EP receptor subtype EP1” value in experiment [1] is given as “no effect”. In addition, in experiment [2], the “effect on EP receptor subtype EP3” value was “no effect”. Besides, the “shift in the PGE2-mediated relaxation” value in experiment [5] is given as “significant rightward shift”. Moreover, the “effect on EP receptor subtype EP2” value in experiment [3] is recorded as “no effect”. In addition, the pA2 in experiment [4] is listed as 5.4.

On to `CC#CCC(C)[C@H](O)/C=C/[C@@H]1[C@H]2C/C(=C/CCCC(=O)O)C[C@H]2C[C@H]1O` (some centres unmarked) [Iloprost], for which the “effect on human cerebral artery rings contracted with phenylephrine” value (shortened to “effect … with phenylephrine”) in experiment [6] was “induced relaxation”.

In the case of `CCCCC[C@H](O)/C=C/[C@H]1C(=O)C[C@H](O)[C@@H]1C/C=C\CCCC(=O)O` [PGD2], the “effect … with phenylephrine” value in experiment [6] is listed as “without effect”.

In the case of `CCCCC[C@H](O)/C=C/[C@H]1[C@H](O)CC(=O)[C@@H]1C/C=C\CCCC(=O)O` [PGE2, prostaglandin E2], the “relaxation of pulmonary artery” value in experiment [7] was “did not cause relaxation”. The “relaxation of cerebral artery rings pre-contracted with 5-HT” value in experiment [6] (5-HT (300nM and 1µM), Figure 2B, 2C) is on record as “maximal or near maximal relaxation”. In addition, the “relaxation of cerebral artery rings pre-contracted with U46619” value in experiment [6] (U46619 (100nM), Figure 2A) is listed as “maximal or near maximal relaxation”. Moreover, the “concentration at which maximum relaxation occurs” value in experiment [6] (cerebral blood vessel pre-contracted with phenylephrine, Figure 1) is reported as “below 10^-6 M”. Further, the “effect on larger vessels” value in experiment [6] (human cerebral artery, internal diameter > 1mm) is recorded as “concentration-related contraction”. Moreover, the “effect on smaller vessels” value in experiment [6] (pre-contracted human cerebral blood vessels, internal diameter < 1mm) was “potent concentration-related relaxation”. The “contraction of coronary artery” value in experiment [8] (pre-contracted coronary artery, likely due to activation of EP3 receptors) is recorded as “A small contraction”. Moreover, the “relaxation of coronary artery” value in experiment [8] is “did not cause relaxation”.

As for `CCCCC[C@H](O)/C=C/[C@@H]1[C@@H](C/C=C\CCCC(=O)O)[C@@H](O)C[C@H]1O` [PGF2α], the “effect … with phenylephrine” value in experiment [6] was “without effect”.

Take `CCC#CC[C@H](C)[C@H](O)C#C[C@@H]1[C@H]2C/C(=C/COCC(=O)O)C[C@H]2C[C@H]1O` [cicaprost]: the “relaxation of pulmonary artery” value in experiment [7] is listed as “induced a relaxation in all preparations”. In addition, the “effect … with phenylephrine” value in experiment [6] is reported as “induced relaxation”. Besides, in experiment [8], the “relaxation of coronary artery” value was “induced a relaxation in all preparations”.
